In ChEMBL document CHEMBL3885861, “Open TG-GATES”:

Species: Rattus norvegicus
Experiment: Open TG-GATES - Regimen: Daily Repeat
Format: toxicity, organism-based, Sprague-Dawley
Parameters: regimen Daily Repeat, gender Male, age 6 weeks
Details: in vivo, iv, 2 mg/kg, route intravenous injection, dose level Low; for APTT / Bas / Eos / Fbg / Hb / Ht / Lym / MCH / MCHC / MCV / Mono / Neu / PT / Plat / RBC / Ret / WBC: tissue Blood; for KIDNEY_L / KIDNEY_R / KIDNEY_TOTAL: tissue Kidney; for LIVER: tissue Liver; for A/G / ALP / ALT / AST / BUN / CRE / Ca / Cl / DBIL / GLC / IP / K / LDH / Na / PL / RALB / TBIL / TC / TG / TP / gamma-GTP: tissue Plasma

Compound: NCCBr [BROMOETHANAMINE]
- TERMINAL_BW (72 h, time 3 day): 236.2 g
- APTT (72 h, time 3 day): 22.5 s
- Bas (72 h, time 3 day): 0%
- Eos (72 h, time 3 day): 1%
- Fbg (72 h, time 3 day): 280.4 mg/dL
- Hb (72 h, time 3 day): 13.2 g/dL
- Ht (72 h, time 3 day): 38.3%
- Lym (72 h, time 3 day): 83.2%
- MCH (72 h, time 3 day): 21.2 pg
- MCHC (72 h, time 3 day): 34.4%
- MCV (72 h, time 3 day): 61.6 fL
- Mono (72 h, time 3 day): 2.8%
- Neu (72 h, time 3 day): 12%
- PT (72 h, time 3 day): 16.2 s
- Plat (72 h, time 3 day): 119.2 x10_4/uL
- RBC (72 h, time 3 day): 620.8 x10_4/ul
- Ret (72 h, time 3 day): 4.7%
- WBC (72 h, time 3 day): 80.2 x10_2/uL
- KIDNEY_L (72 h, time 3 day): 1 g
- KIDNEY_R (72 h, time 3 day): 1 g
- KIDNEY_TOTAL (72 h, time 3 day): 2 g
- LIVER (72 h, time 3 day): 11.1 g
- A/G (72 h, time 3 day): 1.3
- ALP (72 h, time 3 day): 1553.4 IU/L
- ALT (72 h, time 3 day): 39.6 IU/L
- AST (72 h, time 3 day): 68.4 IU/L
- BUN (72 h, time 3 day): 16.2 mg/dL
- CRE (72 h, time 3 day): 0.2 mg/dL
- Ca (72 h, time 3 day): 10.8 mg/dL
- Cl (72 h, time 3 day): 106.4 meq/L
- DBIL (72 h, time 3 day): 0 mg/dL
- GLC (72 h, time 3 day): 178.6 mg/dL
- IP (72 h, time 3 day): 7.2 mg/dL
- K (72 h, time 3 day): 4.6 meq/L
- LDH (72 h, time 3 day): 195.6 IU/L
- Na (72 h, time 3 day): 141.8 meq/L
- PL (72 h, time 3 day): 143.4 mg/dL
- RALB (72 h, time 3 day): 3.1 g/dL
- TBIL (72 h, time 3 day): 0.006 mg/dL
- TC (72 h, time 3 day): 73.6 mg/dL
- TG (72 h, time 3 day): 113 mg/dL
- TP (72 h, time 3 day): 5.6 g/dL
- gamma-GTP (72 h, time 3 day): 2 IU/L
- TERMINAL_BW ([…], time 7 day): 254.2 g
- TERMINAL_BW ([…], time 14 day): 302.2 g
- TERMINAL_BW ([…], time 28 day): 366.5 g
- APTT ([…], time 7 day): 22.7 s
- Bas ([…], time 7 day): 0%
- Eos ([…], time 7 day): 0.8%
- Fbg ([…], time 7 day): 278.8 mg/dL
- Hb ([…], time 7 day): 13.5 g/dL
- Ht ([…], time 7 day): 39.3%
- Lym ([…], time 7 day): 80.6%
- MCH ([…], time 7 day): 21 pg
- MCHC ([…], time 7 day): 34.4%
- MCV ([…], time 7 day): 61 fL
- Mono ([…], time 7 day): 2.8%
- Neu ([…], time 7 day): 15%
- PT ([…], time 7 day): 15.8 s
- Plat ([…], time 7 day): 116.6 x10_4/uL
- RBC ([…], time 7 day): 644 x10_4/ul
- Ret ([…], time 7 day): 3.9%
- WBC ([…], time 7 day): 126.7 x10_2/uL
- APTT ([…], time 14 day): 23 s
- Bas ([…], time 14 day): 0%
- Eos ([…], time 14 day): 1%
- Fbg ([…], time 14 day): 310.8 mg/dL
- Hb ([…], time 14 day): 14.1 g/dL
- Ht ([…], time 14 day): 40.3%
- Lym ([…], time 14 day): 84.8%
- MCH ([…], time 14 day): 20.5 pg
- MCHC ([…], time 14 day): 35%
- MCV ([…], time 14 day): 58.7 fL
- Mono ([…], time 14 day): 2.2%
- Neu ([…], time 14 day): 11.4%
- PT ([…], time 14 day): 15.8 s
- Plat ([…], time 14 day): 116.5 x10_4/uL
- RBC ([…], time 14 day): 686.6 x10_4/ul
- Ret ([…], time 14 day): 3.3%
- WBC ([…], time 14 day): 104.7 x10_2/uL
- APTT ([…], time 28 day): 24.7 s
- Bas ([…], time 28 day): 0%
- Eos ([…], time 28 day): 1%
- Fbg ([…], time 28 day): 305.8 mg/dL
- Hb ([…], time 28 day): 15.7 g/dL
- Ht ([…], time 28 day): 42.4%
- Lym ([…], time 28 day): 85.4%
- MCH ([…], time 28 day): 20.4 pg
- MCHC ([…], time 28 day): 37.1%
- MCV ([…], time 28 day): 54.9 fL
- Mono ([…], time 28 day): 1.4%
- Neu ([…], time 28 day): 10.6%
- PT ([…], time 28 day): 16.4 s
- Plat ([…], time 28 day): 110.2 x10_4/uL
- RBC ([…], time 28 day): 772.8 x10_4/ul
- Ret ([…], time 28 day): 1.9%
- WBC ([…], time 28 day): 107.8 x10_2/uL
- KIDNEY_L ([…], time 7 day): 1.1 g
- KIDNEY_R ([…], time 7 day): 1.1 g
- KIDNEY_TOTAL ([…], time 7 day): 2.2 g
- KIDNEY_L ([…], time 14 day): 1.2 g
- KIDNEY_R ([…], time 14 day): 1.2 g
- KIDNEY_TOTAL ([…], time 14 day): 2.4 g
- KIDNEY_L ([…], time 28 day): 1.4 g
- KIDNEY_R ([…], time 28 day): 1.4 g
- KIDNEY_TOTAL ([…], time 28 day): 2.8 g
- LIVER ([…], time 7 day): 11.6 g
- LIVER ([…], time 14 day): 13.5 g
- LIVER ([…], time 28 day): 15 g
- A/G ([…], time 7 day): 1.2
- ALP ([…], time 7 day): 1420.8 IU/L
- ALT ([…], time 7 day): 36.2 IU/L
- AST ([…], time 7 day): 64 IU/L
- BUN ([…], time 7 day): 16.2 mg/dL
- CRE ([…], time 7 day): 0.2 mg/dL
- Ca ([…], time 7 day): 10.7 mg/dL
- Cl ([…], time 7 day): 105.8 meq/L
- DBIL ([…], time 7 day): 0 mg/dL
- GLC ([…], time 7 day): 181 mg/dL
- IP ([…], time 7 day): 7 mg/dL
- K ([…], time 7 day): 4.6 meq/L
- LDH ([…], time 7 day): 158.8 IU/L
- Na ([…], time 7 day): 140.8 meq/L
- PL ([…], time 7 day): 141 mg/dL
- RALB ([…], time 7 day): 2.9 g/dL
- TBIL ([…], time 7 day): 0.01 mg/dL
- TC ([…], time 7 day): 75.2 mg/dL
- TG ([…], time 7 day): 93 mg/dL
- TP ([…], time 7 day): 5.4 g/dL
- gamma-GTP ([…], time 7 day): 2 IU/L
- A/G ([…], time 14 day): 1.1
- ALP ([…], time 14 day): 1559.2 IU/L
- ALT ([…], time 14 day): 40.6 IU/L
- AST ([…], time 14 day): 67.6 IU/L
- BUN ([…], time 14 day): 17.6 mg/dL
- CRE ([…], time 14 day): 0.2 mg/dL
- Ca ([…], time 14 day): 10.9 mg/dL
- Cl ([…], time 14 day): 107 meq/L
- DBIL ([…], time 14 day): 0 mg/dL
- GLC ([…], time 14 day): 184 mg/dL
- IP ([…], time 14 day): 7.1 mg/dL
- K ([…], time 14 day): 4.3 meq/L
- LDH ([…], time 14 day): 168.6 IU/L
- Na ([…], time 14 day): 144.4 meq/L
- PL ([…], time 14 day): 149 mg/dL
- RALB ([…], time 14 day): 3 g/dL
- TBIL ([…], time 14 day): 0 mg/dL
- TC ([…], time 14 day): 75.4 mg/dL
- TG ([…], time 14 day): 123 mg/dL
- TP ([…], time 14 day): 5.7 g/dL
- gamma-GTP ([…], time 14 day): 2.6 IU/L
- A/G ([…], time 28 day): 1.1
- ALP ([…], time 28 day): 1213.2 IU/L
- ALT ([…], time 28 day): 40.8 IU/L
- AST ([…], time 28 day): 66 IU/L
- BUN ([…], time 28 day): 18.4 mg/dL
- CRE ([…], time 28 day): 0.2 mg/dL
- Ca ([…], time 28 day): 10.4 mg/dL
- Cl ([…], time 28 day): 105.6 meq/L
- DBIL ([…], time 28 day): 0 mg/dL
- GLC ([…], time 28 day): 188.6 mg/dL
- IP ([…], time 28 day): 6.6 mg/dL
- K ([…], time 28 day): 4.1 meq/L
- LDH ([…], time 28 day): 123 IU/L
- Na ([…], time 28 day): 145.8 meq/L
- PL ([…], time 28 day): 141.8 mg/dL
- RALB ([…], time 28 day): 3.2 g/dL
- TBIL ([…], time 28 day): 0.01 mg/dL
- TC ([…], time 28 day): 67.4 mg/dL
- TG ([…], time 28 day): 133.8 mg/dL
- TP ([…], time 28 day): 6 g/dL
- gamma-GTP ([…], time 28 day): 3 IU/L
